Series [1] is described as follows: Cytotoxicity against HEK293 cells assessed as cell viability by MTT assay. Format: cell-based. The conditions noted are these: human.
Series [2] deals with Human immunodeficiency virus 1. The series can be described thus: Antiviral activity against VSVG pseudotyped HIV1 infected in HEK293 cells preincubated for 3 hrs followed by compound washout and subsequent compound redosing and measured after 72 hrs by luciferase reporter gene based assay. Format: functional, organism-based. Particulars: Human immunodeficiency virus 1, HEK293.

Series [3] has as its target Virion infectivity factor (Human immunodeficiency virus type 1 group M subtype B (isolate NY5)(HIV-1)) (UniProt P12504). The series can be described thus: Inhibition of HIV1 HA-tagged Vif expressed in HEK293T cells co-expressing Myc-tagged pcDNA-APOBEC3G assessed as reduction in Vif-mediated A3G degradation at 10 uM measured after 16 hrs by Western blot analysis. In kind it is cell-based. Particulars: Human immunodeficiency virus 1, HEK-293T.

Series [4] shares this target. The experiment in a line: Inhibition of HIV1 HA-tagged Vif expressed in HEK293T cells co-expressing Myc-tagged pcDNA-APOBEC3G and pcDNA-ubiquitin-His assessed as reduction in Vif-mediated A3G polyubiquitination at 10 uM measured after 16 hrs by Western blot analysis. In kind it is cell-based. The conditions noted are these: Human immunodeficiency virus 1, HEK-293T.

The nature of series [5]: Tmax in monkey plasma at 20 mg/kg, po administered as single dose by LC-MS/MS analysis. The conditions noted are these: rhesus monkey. Format: ADME, organism-based, Macaca mulatta.
Series [6] has as its system Human immunodeficiency virus 1. The experiment in a line: Antiviral activity against JRFL pseudotyped HIV1 infected in human Hut/CCR5 cells assessed as time needed to reach 50% reduction of virus infection at 1000 nM incubated with cells for 4 hrs prior to compound washout followed by viral infection and measured after 72 hrs by luciferase reporter gene assay. Format: functional.

Series [7] can be described thus: Cytotoxicity against human Hut/CCR5 cells assessed as reduction in cell viability at 1000 to 10000 nM measured after 120 hrs by MTT assay. Format: cell-based. The conditions noted are these: 10 µM.
Series [8] can be described thus: Cmax in monkey plasma at 20 mg/kg, po administered as single dose by LC-MS/MS analysis. Format: ADME, organism-based, Macaca mulatta. Also noted: dose 20 mg/kg, route oral. Particulars: rhesus monkey.
Series [9] in a line: Cmax in monkey plasma at 20 mg/kg, po administered as single dose measured after 72 hrs by LC-MS/MS analysis. In kind it is ADME, organism-based, Macaca mulatta. Also noted: dose 20 mg/kg, route oral. The conditions noted are these: rhesus monkey.
Series [10] in a line: Binding affinity to HIV1 Vif and CBFbeta-ELOB-ELOC complex (unknown origin) by CM5 chip based assay.
Series [11] is described as follows: AUC (0 to 24 hrs) in monkey PBMC assessed as 3TC-TP level at 20 mg/kg, po administered as single dose by LC-MS/MS analysis. Format: ADME, organism-based, Macaca mulatta. Also noted: time < 24 hr, dose 20 mg/kg, route oral. Particulars: rhesus monkey, in vivo.
The target in series [12] is Virion infectivity factor (Human immunodeficiency virus type 1 group M subtype B (isolate NY5)(HIV-1)) (UniProt P12504). The experiment in a line: Inhibition of HIV1 HA-tagged Vif expressed in HEK293T cells co-expressing eGFP-tagged pcDNA-APOBEC3G assessed as reduction in Vif-mediated A3G degradation at 10000 nM measured after 48 hrs by flow cytometry. Format: cell-based. Particulars: Human immunodeficiency virus 1, HEK-293T.
Sequence of Virion infectivity factor (Human immunodeficiency virus type 1 group M subtype B (isolate NY5)(HIV-1)) (P12504 whole entry): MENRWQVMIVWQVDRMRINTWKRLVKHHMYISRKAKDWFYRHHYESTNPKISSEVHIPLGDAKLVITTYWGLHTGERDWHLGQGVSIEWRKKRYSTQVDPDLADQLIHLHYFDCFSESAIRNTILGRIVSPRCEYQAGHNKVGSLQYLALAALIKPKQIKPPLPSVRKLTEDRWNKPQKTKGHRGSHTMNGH

For series [13] the target is unchanged. The series can be described thus: Inhibition of HIV1 HA-tagged Vif expressed in HEK293T cells co-expressing Myc-tagged pcDNA-APOBEC3G assessed as reduction in Vif-mediated A3G degradation at 10000 nM measured after 48 hrs by Western blot analysis. Particulars: Human immunodeficiency virus 1, HEK-293T. In kind it is cell-based.
Series [14] can be described thus: Tmax in monkey PBMC assessed as 3TC-TP level at 20 mg/kg, po administered as single dose by LC-MS/MS analysis. In kind it is ADME, organism-based, Macaca mulatta. Particulars: rhesus monkey, in vivo.
The nature of series [15]: AUC (0 to 24 hrs) in monkey plasma at 20 mg/kg, po administered as single dose by LC-MS/MS analysis. Also noted: dose 20 mg/kg, time < 24 hr, route oral. The conditions noted are these: rhesus monkey. Format: ADME, organism-based, Macaca mulatta.
Series [16] concerns Human immunodeficiency virus 1. The series can be described thus: Antiviral activity against JRFL pseudotyped HIV1 infected in human Hut/CCR5 cells assessed as time needed to reach 50% reduction of virus infection at 10000 nM incubated with cells for 4 hrs prior to compound washout followed by viral infection and measured after 72 hrs by luciferase reporter gene assay. Format: functional.

Series [17] can be described thus: Cmax in monkey PBMC assessed as 3TC-TP level at 20 mg/kg, po administered as single dose by LC-MS/MS analysis. In kind it is ADME, organism-based, Macaca mulatta. Also noted: dose 20 mg/kg, route oral. Particulars: rhesus monkey, in vivo.

Each structure is given as a SMILES string. Activity calls are given as the source filed them. No cut-off for these calls is given here. Peptide text beside a SMILES is read from it. * marks the point of attachment. Cbz = O=C(OCc1ccccc1)*

The source of these data is ChEMBL document CHEMBL4619799, “Mechanistic Insight into Antiretroviral Potency of 2'-Deoxy-2'-β-fluoro-4'-azidocytidine (FNC) with a Long-Lasting Effect on HIV-1 Prevention” (J Med Chem, 2020).

Regarding `CNc1ccn([C@@H]2O[C@@](CO)(N=[N+]=[N-])[C@@H](O)[C@@H]2F)c(=O)n1`, the CC50 in [1] was not below 25 µM. The same compound yielded an EC50 in series [2] of 6.7 µM.

Compound `CCNc1ccn([C@@H]2O[C@@](CO)(N=[N+]=[N-])[C@@H](O)[C@@H]2F)c(=O)n1` yielded an EC50 in series [2] of more than 10 µM.

The compound `[N-]=[N+]=N[C@]1(CO)O[C@@H](n2ccc(NC3CCCCC3)nc2=O)[C@@H](F)[C@@H]1O` came in with an EC50 in series [2] of more than 10 µM.

In the case of `CN(C)c1ccn([C@@H]2O[C@@](CO)(N=[N+]=[N-])[C@@H](O)[C@@H]2F)c(=O)n1`, in [1], the CC50 was not below 25 µM. Further, the response in series [2] was half-maximal at 13 µM (EC50).

For `CCN(CC)c1ccn([C@@H]2O[C@@](CO)(N=[N+]=[N-])[C@@H](O)[C@@H]2F)c(=O)n1`, the EC50 in series [2] is more than 10 µM.

`[N-]=[N+]=N[C@]1(CO)O[C@@H](n2ccc(N3CCCC3)nc2=O)[C@@H](F)[C@@H]1O` showed an EC50 in series [2] of more than 10 µM.

Compound `[N-]=[N+]=N[C@]1(CO)O[C@@H](n2ccc(NCCCO)nc2=O)[C@@H](F)[C@@H]1O` yielded an EC50 in series [2] of more than 10 µM.

Take `[N-]=[N+]=N[C@]1(CO)O[C@@H](n2ccc(NCc3cccnc3)nc2=O)[C@@H](F)[C@@H]1O`: the CC50 in series [1] is not below 25 µM. The compound further returned an EC50 in series [2] of 1.3 µM.

On to `COc1ccc(Nc2ccn([C@@H]3O[C@@](CO)(N=[N+]=[N-])[C@@H](O)[C@@H]3F)c(=O)n2)c(OC)c1`, for which, in series [1], the CC50 was not below 25 µM. This compound also yielded an EC50 in series [2] of 5.2 µM.

`[N-]=[N+]=N[C@]1(CO)O[C@@H](n2ccc(NO)nc2=O)[C@@H](F)[C@@H]1O`: the CC50 in [1] is not below 25 µM. The compound also returned an EC50 in series [2] of 0.7 µM.

As for `[N-]=[N+]=N[C@]1(CO)O[C@@H](n2ccc(N(CCO)CCO)nc2=O)[C@@H](F)[C@@H]1O`, in series [1], the CC50 was not below 25 µM. Also, in series [2], a half-maximal effect (EC50) was put at 0.8 µM.

`CCONc1ccn([C@@H]2O[C@@](CO)(N=[N+]=[N-])[C@@H](O)[C@@H]2F)c(=O)n1` came in with a concentration giving a half-maximal response (EC50) in [2] of more than 10 µM.

For `[N-]=[N+]=N[C@]1(CO)O[C@@H](n2ccc(NCc3ccco3)nc2=O)[C@@H](F)[C@@H]1O`, the CC50 in [1] was not below 25 µM. The midpoint of the response in [2], the EC50, lay at 0.7 µM.

For the compound `[N-]=[N+]=N[C@]1(CO)O[C@@H](n2ccc(N3CCOCC3)nc2=O)[C@@H](F)[C@@H]1O`, the EC50 in series [2] was more than 10 µM.

With `[N-]=[N+]=N[C@]1(CO)O[C@@H](n2ccc(NCCc3ccc(O)cc3)nc2=O)[C@@H](F)[C@@H]1O`, in [1], the CC50 was not below 25 µM. Further, it took 5.7 µM to reach a half-maximal effect in series [2] (EC50).

`[N-]=[N+]=N[C@]1(CO)O[C@@H](n2ccc(NCCO)nc2=O)[C@@H](F)[C@@H]1O` had an EC50 in [2] of more than 10 µM.

For the compound `CON(C)c1ccn([C@@H]2O[C@@](CO)(N=[N+]=[N-])[C@@H](O)[C@@H]2F)c(=O)n1`, the EC50 in series [2] is more than 10 µM.

Compound `CONc1ccn([C@@H]2O[C@@](CO)(N=[N+]=[N-])[C@@H](O)[C@@H]2F)c(=O)n1` showed an EC50 in series [2] of more than 10 µM.

For `CC(C)C[C@@H](C=O)NC(=O)[C@H](CC(C)C)NC(=O)[C@H](CC(C)C)NC(=O)OCc1ccccc1` (Cbz-Leu-Leu-Leu-aldehyde), the inhibition result in series [3] and in series [4] was “Active” each time.

On to `Nc1ccn([C@@H]2CS[C@H](CO)O2)c(=O)n1` [LAMIVUDINE], for which the Tmax in [5] and in [14] was 1 h each time. In addition, the Time was 26.75 h in [6] and 42.7 to 42.74 h in [16]. In addition, the Activity result in series [7] is on record as “Non-Toxic”. Besides, the Cmax came to 31300 nM in series [8], 93.6 nM in [9] and 0.03 nM in [17]. In series [10], this compound yielded a dissociation constant (Kd) of 1.51 µM. For the same compound, the AUC in series [11] came out at 0.00013 µM·h. Also, the inhibition result in series [12] and in series [13] was “inactive” throughout. Besides, the CC50 in series [1] was not below 25 µM. The compound further displayed an AUC(0-t) at 24 h in [15] of 395 µM·h. Also, the half-maximal effective concentration (EC50) in series [2] amounted to 0.3 µM.
